Results reported in patent US9828339B2, “Biphenyl derivatives and methods for preparing same” (DONG-A ST CO., LTD, priority 2013, dated 2017).

Target: human muscarinic M3 receptor (Homo sapiens (Human), UniProt P20309)
Experiment: Binding assay on human muscarinic M3 receptor ([3H]-methyl scopolamine displacement)
Details: membranes overexpressing human M3 receptor, Ki from IC50 by Cheng-Prusoff, read-out: Binding Affinity to M3 Receptor, Ki
Description: [Experimental Example 1] Binding Assay on Human Muscarinic M3 Receptor
Cell membrane proteins (Perkin Elmer) wherein human muscarinic M3 receptor was overexpressed, [^3H]-methyl scopolamine and test compounds in various concentration were cultured in 0.2 ml of Tris-HCl buffer at 25° C. for 120 minutes. The same was filtered under suction through glass fiber filter (Whatman GF/B), and then the filter was washed 5 times with 1 ml of Tris-HCl buffer. The radioactivity of [^3H]-methyl scopolamine adsorbed on the filter was measured by a liquid scintillation counter. Non-specific binding was evaluated under existence of 5 μM of atropine. Affinity of the compound of the present invention to muscarinic M3 receptor was calculated as the dissociation constant (Ki), which can be calculated from concentration (IC50) of test compounds inhibiting 50% of binding of [^3H]-methyl scopolamine (i.e. labeled ligand) according to Cheng and Prusoff [Cheng and Prusoff, Biochem. Pharmacol., 22, 3099, 1973].

human muscarinic M3 receptor, sequence (P20309 whole entry): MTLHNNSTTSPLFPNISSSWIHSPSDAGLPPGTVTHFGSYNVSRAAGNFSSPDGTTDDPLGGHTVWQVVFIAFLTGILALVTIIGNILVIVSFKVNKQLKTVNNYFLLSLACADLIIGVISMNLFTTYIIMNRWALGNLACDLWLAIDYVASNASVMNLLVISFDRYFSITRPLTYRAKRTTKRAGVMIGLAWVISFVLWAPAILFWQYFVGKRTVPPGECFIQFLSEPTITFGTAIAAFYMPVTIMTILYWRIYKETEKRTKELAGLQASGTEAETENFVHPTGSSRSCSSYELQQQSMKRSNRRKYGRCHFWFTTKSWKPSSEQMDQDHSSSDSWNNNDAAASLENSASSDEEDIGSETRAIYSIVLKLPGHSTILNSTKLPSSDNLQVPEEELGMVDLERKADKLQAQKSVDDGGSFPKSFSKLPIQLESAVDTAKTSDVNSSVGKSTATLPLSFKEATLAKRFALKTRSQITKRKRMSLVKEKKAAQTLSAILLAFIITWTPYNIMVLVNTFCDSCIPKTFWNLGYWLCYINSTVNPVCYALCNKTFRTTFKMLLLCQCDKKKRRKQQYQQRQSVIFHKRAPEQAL

Row | SMILES | Ki [nM]
1 | Cc1cccc(-c2cc(F)ccc2NC(=O)OC[C@H]2CCN(C)C2)c1 [Example 94, (S)-(1-methylpyrrolidin-3-yl)methyl (5-fluoro-3′-methyl-[1,1′-biphenyl]-2-yl)carbamate] | 6.18
2 | CN1CC[C@H](COC(=O)Nc2ccc(F)cc2-c2cc(F)cc(F)c2)C1 [Example 96, (S)-(1-methylpyrrolidin-3-yl)methyl (3′,5,5′-trifluoro-[1,1′-biphenyl]-2-yl)carbamate] | 17.6
3 | Cc1ccc(NC(=O)OC[C@@H]2CCN(C)C2)c(-c2ccccc2)c1 [Example 97, (R)-(1-methylpyrrolidin-3-yl)methyl (5-methyl-[1,1′-biphenyl]-2-yl)carbamate] | 35.2
4 | Cc1ccc(NC(=O)OC[C@@H]2CCN(C)C2)c(-c2cccc(F)c2)c1 [Example 98, (R)-(1-methylpyrrolidin-3-yl)methyl (3′-fluoro-5-methyl-[1,1′-biphenyl]-2-yl)carbamate] | 46.2
5 | CCN1CC[C@@H](COC(=O)Nc2ccccc2-c2ccccc2)C1 [Example 102, (R)-(1-ethylpyrrolidin-3-yl)methyl [1,1′-biphenyl]-2-ylcarbamate] | 12.9
6 | CCN1CC[C@H](COC(=O)Nc2ccccc2-c2ccccc2)C1 [Example 103, (S)-(1-ethylpyrrolidin-3-yl)methyl [1,1′-biphenyl]-2-ylcarbamate] | 13
7 | CCN1CC[C@@H](COC(=O)Nc2ccccc2-c2cccc(C)c2)C1 [Example 104, (R)-(1-ethylpyrrolidin-3-yl)methyl (3′-methyl-[1,1′-biphenyl]-2-yl)carbamate] | 14.2
8 | CCN1CC[C@H](COC(=O)Nc2ccccc2-c2cccc(C)c2)C1 [Example 105, (S)-(1-ethylpyrrolidin-3-yl)methyl (3′-methyl-[1,1′-biphenyl]-2-yl)carbamate] | 19.6
9 | CC(C)CN1CCC[C@H]1COC(=O)Nc1ccccc1-c1ccccc1 [Example 107, (S)-(1-isobutylpyrrolidin-2-yl)-methyl [1,1′-biphenyl]-2-ylcarbamate] | 752
10 | Cc1cccc(-c2ccccc2NC(=O)OC[C@H]2CCCN2C)c1 [Example 110, (R)-(1-methylpyrrolidin-2-yl)-methyl (3′-methyl-[1,1′-biphenyl]-2-yl)carbamate] | 9.13
11 | Cc1cccc(-c2cc(F)ccc2NC(=O)OC[C@H]2CCCN2C)c1 [Example 111, (R)-(1-methylpyrrolidin-2-yl)-methyl (5-fluoro-3′-methyl-[1,1′-biphenyl]-2-yl)carbamate] | 10.8
12 | CN1CC[C@@H](COC(=O)Nc2ccccc2-c2cccc(F)c2)C1 [Example 113, (R)-(1-methylpyrrolidin-3-yl)-methyl (3′-fluoro-[1,1′-biphenyl]-2-yl)carbamate] | 1.92
13 | CN1CC[C@H](COC(=O)Nc2ccccc2-c2cc(Cl)cc(Cl)c2)C1 [Example 119, (S)-(1-methylpyrrolidin-3-yl)methyl(3′,5′-dichloro-[1,1′-biphenyl]-2-yl)carbamate] | 42.3
14 | Cc1cc(C)cc(-c2cc(F)ccc2NC(=O)OC[C@H]2CCN(C)C2)c1 [Example 122, (S)-(1-methylpyrrolidin-3-yl)methyl(5-fluoro-3′,5′-dimethyl-[1,1′-biphenyl]-2-yl)carbamate] | 87.8
15 | CN1CC[C@H](COC(=O)Nc2ccc(F)cc2-c2cc(O)cc(Cl)c2)C1 [Example 123, (S)-(1-methylpyrrolidin-3-yl)methyl(3′-chloro-5-fluoro-5′-hydroxy-[1,1′-biphenyl]-2-yl)carbamate] | 52.8
16 | CN1CC[C@H](COC(=O)Nc2ccc(F)cc2-c2ccc(Cl)cc2)C1 [Example 127, (S)-(1-methylpyrrolidin-3-yl)methyl(4′-chloro-5-fluoro-[1,1′-biphenyl]-2-yl)carbamate] | 69.4
17 | CN1CC[C@@H](COC(=O)Nc2ccc(F)cc2-c2cccc(N)c2)C1 [Example 133, (R)-(1-methylpyrrolidin-3-yl)methyl(5-fluoro-3′-amino-[1,1′-biphenyl]-2-yl)carbamate] | 34.5
18 | CN1CC[C@@H](COC(=O)Nc2ccc(F)cc2-c2cc(O)cc(Cl)c2)C1 [Example 134, (R)-(1-methylpyrrolidin-3-yl)methyl(3′-chloro-5-fluoro-5′-hydroxy-[1,1′-biphenyl]-2-yl)carbamate] | 46.9
19 | CN1CC[C@@H](COC(=O)Nc2ccccc2-c2cccc(O)c2)C1 [Example 137, (R)-(1-methylpyrrolidin-3-yl)methyl(3′-hydroxy-[1,1′-biphenyl]-2-yl)carbamate] | 27
20 | CN1CC[C@@H](COC(=O)Nc2ccccc2-c2cc(Cl)cc(C(F)(F)F)c2)C1 [Example 138, (R)-(1-methylpyrrolidin-3-yl)methyl(3′-chloro-5′-(trifluoromethyl)-[1,1′-biphenyl]-2-yl)carbamate] | > 1000

Row | SMILES | Ki [nM]
21 | COc1cc(Cl)cc(-c2cc(F)ccc2NC(=O)OC[C@@H]2CCN(C)C2)c1 [Example 139, (R)-(1-methylpyrrolidin-3-yl)methyl(3′-chloro-5-fluoro-5′-methoxy-[1,1′-biphenyl]-2-yl)carbamate] | 82.7
22 | CN1CC[C@@H](COC(=O)Nc2ccc(F)cc2-c2cc(Cl)cc(C(F)(F)F)c2)C1 [Example 140, (R)-(1-methylpyrrolidin-3-yl)methyl(3′-chloro-5-fluoro-5′-(trifluoromethyl)-[1,1′-biphenyl]-2-yl)carbamate] | > 1000
23 | COc1ccc(NC(=O)OC[C@@H]2CCN(C)C2)c(-c2ccc(F)c(Cl)c2)c1 [Example 147, (R)-(1-methylpyrrolidin-3-yl)methyl(3′-chloro-4′-fluoro-5-methoxy-[1,1′-biphenyl]-2-yl)carbamate] | 77.4
24 | CN1CC[C@@H](COC(=O)Nc2ccccc2-c2cccc(CO)c2)C1 [Example 152, (R)-(1-methylpyrrolidin-3-yl)-methyl (3′-(hydroxymethyl)-[1,1′-biphenyl]-2-yl)carbamate] | 147
25 | CN1CC[C@@H](COC(=O)Nc2ccccc2-c2cccc(C(N)=O)c2)C1 [Example 153, (R)-(1-methylpyrrolidin-3-yl)methyl(3′-carbamoyl-[1,1′-biphenyl]-2-yl)carbamate] | > 1000
26 | CN1CC[C@@H](COC(=O)Nc2ccccc2-c2cccc(N)c2)C1 [Example 154, (R)-(1-methylpyrrolidin-3-yl)methyl(3′-amino-[1,1′-biphenyl]-2-yl)carbamate] | 16.7
27 | CN1CC[C@@H](COC(=O)Nc2ccccc2-c2cccc(C#N)c2)C1 [Example 155, (R)-(1-methylpyrrolidin-3-yl)methyl(3′-cyano-[1,1′-biphenyl]-2-yl)carbamate] | > 1000
28 | CN1CC[C@@H](COC(=O)Nc2ccccc2-c2cccc(F)c2F)C1 [Example 158, (R)-(1-methylpyrrolidin-3-yl)methyl(2′,3′-difluoro-[1,1′-biphenyl]-2-yl)carbamate] | 120
29 | CN1CCC[C@H]1COC(=O)Nc1ccccc1-c1cc(F)cc(F)c1 [Example 161, (S)-(1-methylpyrrolidin-2-yl)methyl(3′,5′-difluoro-[1,1′-biphenyl]-2-yl)carbamate] | 8.92
30 | CN1CCC[C@H]1COC(=O)Nc1ccccc1-c1ccc(F)c(F)c1 [Example 162, (S)-(1-methylpyrrolidin-2-yl)methyl(3′,4′-difluoro-[1,1′-biphenyl]-2-yl)carbamate] | 5.34
31 | CN1CCC[C@H]1COC(=O)Nc1ccccc1-c1cc(F)c(F)cc1F [Example 163, (S)-(1-methylpyrrolidin-2-yl)methyl (2′,4′,5′-trifluoro-[1,1′-biphenyl]-2-yl)carbamate] | 16.1
32 | CN1CCC[C@H]1COC(=O)Nc1ccccc1-c1ccc(Cl)cc1 [Example 164, (S)-(1-methylpyrrolidin-2-yl)methyl(4′-chloro-[1,1′-biphenyl]-2-yl)carbamate] | 36.9
33 | CN1CCC[C@H]1COC(=O)Nc1ccccc1-c1ccc(Cl)cc1Cl [Example 167, (S)-(1-methylpyrrolidin-2-yl)methyl(2′,4′-dichloro-[1,1′-biphenyl]-2-yl)carbamate] | 67.3
34 | CN1CCC[C@H]1COC(=O)Nc1ccccc1-c1cccc(O)c1 [Example 168, (S)-(1-methylpyrrolidin-2-yl)methyl(3′-hydroxy-[1,1′-biphenyl]-2-yl)carbamate] | 22.9
35 | CN1CCC[C@H]1COC(=O)Nc1ccccc1-c1cccc(C#N)c1 [Example 169, (S)-(1-methylpyrrolidin-2-yl)methyl(3′-cyano-[1,1′-biphenyl]-2-yl)carbamate] | 282
36 | CN1CCC[C@H]1COC(=O)Nc1ccccc1-c1cccc(N)c1 [Example 170, (S)-(1-methylpyrrolidin-2-yl)methyl(3′-amino-[1,1′-biphenyl]-2-yl)carbamate] | 9.23
37 | CN1CCC[C@H]1COC(=O)Nc1ccc(F)cc1-c1ccc(F)c(F)c1 [Example 171, (S)-(1-methylpyrrolidin-2-yl)methyl (3′,4′,5-trifluoro-[1,1′-biphenyl]-2-yl)carbamate] | 16.9
38 | CN1CCC[C@H]1COC(=O)Nc1ccc(F)cc1-c1cc(F)c(F)cc1F [Example 173, (S)-(1-methylpyrrolidin-2-yl)methyl (2′,4′,5,5′-tetrafluoro-[1,1′-biphenyl]-2-yl)carbamate] | 42.7
39 | CN1CCC[C@H]1COC(=O)Nc1ccc(F)cc1-c1cccc(Cl)c1 [Example 174, (S)-(1-methylpyrrolidin-2-yl)methyl(3′-chloro-5-fluoro-[1,1′-biphenyl]-2-yl)carbamate] | 0.61
40 | CN1CCC[C@H]1COC(=O)Nc1ccc(F)cc1-c1ccc(Cl)cc1 [Example 175, (S)-(1-methylpyrrolidin-2-yl)methyl (4′-chloro-5-fluoro-[1,1′-biphenyl]-2-yl)carbamate] | 22.5
